Laboratory results reported in the supplement of paper PMC10307832.

Tests used:
Assay in all cases: relative viability (nuclei count vs DMSO), 5 days (fraction); higher = more cells survive
HCC-44 = tested on: HCC-44
Outline: (§1)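 Each reported value is a median over duplicate plates. It expresses relative viability: treated-well nuclei count divided by vehicle-well nuclei count. Lung cancer cell lines in 1536-well plates were dosed by pin tool a day after seeding, alone with one drug or with a fixed anchor-drug dose plus five library-drug doses (not always all listed) in √10 steps, and nuclei were counted after 5 days.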

NCI-H1975 = tested on: NCI-H1975
Outline: as §1

LOU-NH91 = tested on: LOU-NH91
Outline: as §1

NCI-H1755 = tested on: NCI-H1755
Outline: as §1

LU99A = tested on: LU99A
Outline: as §1

NCI-H460 = tested on: NCI-H460
Outline: as §1

NCI-H1563 = tested on: NCI-H1563
Outline: as §1

NCI-H1437 = tested on: NCI-H1437
Outline: as §1

HCC-366 = tested on: HCC-366
Outline: as §1

BEN = tested on: BEN
Outline: as §1

NCI-H1734 = tested on: NCI-H1734
Outline: as §1

NCI-H441 = tested on: NCI-H441
Outline: as §1

NCI-H358 = tested on: NCI-H358
Outline: as §1

NCI-H838 = tested on: NCI-H838
Outline: as §1

NCI-H2023 = tested on: NCI-H2023
Outline: as §1

NCI-H1651 = tested on: NCI-H1651
Outline: as §1

EKVX = tested on: EKVX
Outline: as §1

CAL-12T = tested on: CAL-12T
Outline: as §1

NCI-H2085 = tested on: NCI-H2085
Outline: as §1

NCI-H1355 = tested on: NCI-H1355
Outline: as §1

NCI-H1650 = tested on: NCI-H1650
Outline: as §1

`CC1(C)CCC(c2ccc(Cl)cc2)=C(CN2CCN(c3ccc(C(=O)NS(=O)(=O)c4ccc(N[C@H](CCN5CCOCC5)CSc5ccccc5)c(S(=O)(=O)C(F)(F)F)c4)cc3)CC2)C1` [Navitoclax] + C[C@@H](Oc1cc(-c2cnn(C3CCNCC3)c2)cnc1N)c1c(Cl)ccc(F)c1Cl [Crizotinib] (partner 1 µM) gave a relative viability (HCC-44; first compound 0.005 µM) of 0.815, a relative viability (HCC-44; first compound 0.01581 µM) of 0.835 and a relative viability (HCC-44; first compound 0.05 µM) of 0.794. For the same compound, the relative viability (HCC-44; first compound 0.1581 µM) was 0.825, the relative viability (HCC-44; first compound 0.5 µM) was 0.866 and the relative viability (NCI-H1975; first compound 0.005 µM) was 0.836. It also gave a relative viability (NCI-H1975; first compound 0.01581 µM) of 1.07, a relative viability (NCI-H1975; first compound 0.05 µM) of 1.12 and a relative viability (NCI-H1975; first compound 0.1581 µM) of 0.921. It also gave a relative viability (NCI-H1975; first compound 0.5 µM) of 0.887, a relative viability (LOU-NH91; first compound 0.005 µM) of 0.766 and a relative viability (LOU-NH91; first compound 0.01581 µM) of 0.742. The relative viability (LOU-NH91; first compound 0.05 µM) was 0.807, the relative viability (LOU-NH91; first compound 0.1581 µM) was 0.731 and the relative viability (LOU-NH91; first compound 0.5 µM) was 0.711. The relative viability (NCI-H1755; first compound 0.005 µM) was 0.823, the relative viability (NCI-H1755; first compound 0.01581 µM) was 0.903 and the relative viability (NCI-H1755; first compound 0.05 µM) was 0.715. For the same compound, the relative viability (NCI-H1755; first compound 0.1581 µM) was 0.859, the relative viability (NCI-H1755; first compound 0.5 µM) was 0.89 and the relative viability (LU99A; first compound 0.005 µM) was 0.549. It also gave a relative viability (LU99A; first compound 0.01581 µM) of 0.691, a relative viability (LU99A; first compound 0.05 µM) of 0.39 and a relative viability (LU99A; first compound 0.1581 µM) of 0.588. The relative viability (LU99A; first compound 0.5 µM) was 0.638, the relative viability (NCI-H460; first compound 0.005 µM) was 0.805 and the relative viability (NCI-H460; first compound 0.01581 µM) was 0.915. For the same compound, the relative viability (NCI-H460; first compound 0.05 µM) was 0.979, the relative viability (NCI-H460; first compound 0.1581 µM) was 0.894 and the relative viability (NCI-H460; first compound 0.5 µM) was 0.874. For the same compound, the relative viability (NCI-H1563; first compound 0.005 µM) was 0.908, the relative viability (NCI-H1563; first compound 0.01581 µM) was 0.92 and the relative viability (NCI-H1563; first compound 0.05 µM) was 0.897. The relative viability (NCI-H1563; first compound 0.1581 µM) was 0.808, the relative viability (NCI-H1563; first compound 0.5 µM) was 1.12 and the relative viability (NCI-H1437; first compound 0.005 µM) was 0.916. The relative viability (NCI-H1437; first compound 0.01581 µM) was 0.93, the relative viability (NCI-H1437; first compound 0.05 µM) was 0.892 and the relative viability (NCI-H1437; first compound 0.1581 µM) was 0.961. The relative viability (NCI-H1437; first compound 0.5 µM) was 0.873, the relative viability (HCC-366; first compound 0.005 µM) was 0.456 and the relative viability (HCC-366; first compound 0.01581 µM) was 0.635. The relative viability (HCC-366; first compound 0.05 µM) was 0.0527, the relative viability (HCC-366; first compound 0.1581 µM) was 0.514 and the relative viability (HCC-366; first compound 0.5 µM) was 0.562. For the same compound, the relative viability (BEN; first compound 0.005 µM) was 0.878, the relative viability (BEN; first compound 0.01581 µM) was 0.897 and the relative viability (BEN; first compound 0.05 µM) was 0.936. It also gave a relative viability (BEN; first compound 0.1581 µM) of 0.944, a relative viability (BEN; first compound 0.5 µM) of 0.662 and a relative viability (NCI-H1734; first compound 0.005 µM) of 0.705. The relative viability (NCI-H1734; first compound 0.01581 µM) was 0.681, the relative viability (NCI-H1734; first compound 0.1581 µM) was 0.785 and the relative viability (NCI-H1734; first compound 0.5 µM) was 0.693. The relative viability (NCI-H441; first compound 0.005 µM) was 0.657, the relative viability (NCI-H441; first compound 0.01581 µM) was 0.865 and the relative viability (NCI-H441; first compound 0.05 µM) was 0.734. It also gave a relative viability (NCI-H441; first compound 0.1581 µM) of 0.764, a relative viability (NCI-H441; first compound 0.5 µM) of 0.621 and a relative viability (NCI-H358; first compound 0.005 µM) of 0.567. For the same compound, the relative viability (NCI-H358; first compound 0.01581 µM) was 0.595, the relative viability (NCI-H358; first compound 0.05 µM) was 0.634 and the relative viability (NCI-H358; first compound 0.1581 µM) was 0.506. It also gave a relative viability (NCI-H358; first compound 0.5 µM) of 0.743, a relative viability (NCI-H838; first compound 0.005 µM) of 0.794 and a relative viability (NCI-H838; first compound 0.01581 µM) of 0.885. It also gave a relative viability (NCI-H838; first compound 0.05 µM) of 1.01, a relative viability (NCI-H838; first compound 0.1581 µM) of 0.802 and a relative viability (NCI-H838; first compound 0.5 µM) of 0.817. It also gave a relative viability (NCI-H2023; first compound 0.005 µM) of 0.668, a relative viability (NCI-H2023; first compound 0.01581 µM) of 0.65 and a relative viability (NCI-H2023; first compound 0.05 µM) of 0.694. The relative viability (NCI-H2023; first compound 0.1581 µM) was 0.738, the relative viability (NCI-H2023; first compound 0.5 µM) was 0.662 and the relative viability (NCI-H1651; first compound 0.005 µM) was 0.877. The relative viability (NCI-H1651; first compound 0.01581 µM) was 0.939, the relative viability (NCI-H1651; first compound 0.05 µM) was 0.78 and the relative viability (NCI-H1651; first compound 0.1581 µM) was 0.821. The relative viability (NCI-H1651; first compound 0.5 µM) was 0.839, the relative viability (EKVX; first compound 0.005 µM) was 1 and the relative viability (EKVX; first compound 0.01581 µM) was 1.16. It also gave a relative viability (EKVX; first compound 0.05 µM) of 1.08, a relative viability (EKVX; first compound 0.1581 µM) of 0.93 and a relative viability (EKVX; first compound 0.5 µM) of 0.888. The relative viability (CAL-12T; first compound 0.005 µM) was 0.589, the relative viability (CAL-12T; first compound 0.01581 µM) was 0.653 and the relative viability (CAL-12T; first compound 0.05 µM) was 0.725. For the same compound, the relative viability (CAL-12T; first compound 0.1581 µM) was 0.744, the relative viability (CAL-12T; first compound 0.5 µM) was 0.536 and the relative viability (NCI-H2085; first compound 0.005 µM) was 0.862. For the same compound, the relative viability (NCI-H2085; first compound 0.01581 µM) was 0.838, the relative viability (NCI-H2085; first compound 0.05 µM) was 0.861 and the relative viability (NCI-H2085; first compound 0.1581 µM) was 0.822. It also gave a relative viability (NCI-H2085; first compound 0.5 µM) of 0.909, a relative viability (NCI-H1355; first compound 0.005 µM) of 1.03 and a relative viability (NCI-H1355; first compound 0.01581 µM) of 1.15. For the same compound, the relative viability (NCI-H1355; first compound 0.05 µM) was 1.02, the relative viability (NCI-H1355; first compound 0.1581 µM) was 1.05 and the relative viability (NCI-H1355; first compound 0.5 µM) was 1.03. For the same compound, the relative viability (NCI-H1650; first compound 0.005 µM) was 0.995, the relative viability (NCI-H1650; first compound 0.01581 µM) was 1.13 and the relative viability (NCI-H1650; first compound 0.05 µM) was 1.17. The relative viability (NCI-H1650; first compound 0.1581 µM) was 0.938 and the relative viability (NCI-H1650; first compound 0.5 µM) was 0.667.
